Experimental data published in US9487488B2, “Sulfonamide compound” (MITSUBISHI TANABE PHARMA CORPORATION, priority 2012, dated 2016).

Target: human TRPM8 (Homo sapiens (Human), UniProt Q7Z2W7)
Assay: TRPM8 inhibition assay (menthol-induced calcium influx, FDSS)
Assay type: cell-based
Details: HEK293 cells stably expressing human TRPM8; 100 μmol/L menthol; Fura-2AM calcium signal; read-out: TRPM8 Blocking Test (IC50/nmol/L)
Procedure: The functional activity of a test compound was determined by measuring change in intracellular calcium concentration using a calcium sensitive fluorescent dye. The change in fluorescent signal was measured by the cell imaging technology by Hamamatsu Photonics's Functional Drug Screening System (FDSS).
HEK293 cells stably expressing human TRPM8 were grown in a flask. On assay day, the culture medium was removed from the flask, and cells were washed with phosphate-buffered saline (PBS) and harvested with PBS containing 2 mmol/L of ethylenediaminetetraacetic acid disodium salt (EDTA-2Na). […] Subsequently, suspended 20,000 to 50,000 cells per well were incubated with a test compound (at varying concentrations) in each well at 37° C. for 20 minutes. Change in intracellular calcium concentration evoked by 100 μmol/L of menthol was measured for 2 minutes using FDSS. […] The concentration-response curve was generated using the average of quadruplicate wells for each data point.

Sequence of human TRPM8 (Q7Z2W7 whole entry): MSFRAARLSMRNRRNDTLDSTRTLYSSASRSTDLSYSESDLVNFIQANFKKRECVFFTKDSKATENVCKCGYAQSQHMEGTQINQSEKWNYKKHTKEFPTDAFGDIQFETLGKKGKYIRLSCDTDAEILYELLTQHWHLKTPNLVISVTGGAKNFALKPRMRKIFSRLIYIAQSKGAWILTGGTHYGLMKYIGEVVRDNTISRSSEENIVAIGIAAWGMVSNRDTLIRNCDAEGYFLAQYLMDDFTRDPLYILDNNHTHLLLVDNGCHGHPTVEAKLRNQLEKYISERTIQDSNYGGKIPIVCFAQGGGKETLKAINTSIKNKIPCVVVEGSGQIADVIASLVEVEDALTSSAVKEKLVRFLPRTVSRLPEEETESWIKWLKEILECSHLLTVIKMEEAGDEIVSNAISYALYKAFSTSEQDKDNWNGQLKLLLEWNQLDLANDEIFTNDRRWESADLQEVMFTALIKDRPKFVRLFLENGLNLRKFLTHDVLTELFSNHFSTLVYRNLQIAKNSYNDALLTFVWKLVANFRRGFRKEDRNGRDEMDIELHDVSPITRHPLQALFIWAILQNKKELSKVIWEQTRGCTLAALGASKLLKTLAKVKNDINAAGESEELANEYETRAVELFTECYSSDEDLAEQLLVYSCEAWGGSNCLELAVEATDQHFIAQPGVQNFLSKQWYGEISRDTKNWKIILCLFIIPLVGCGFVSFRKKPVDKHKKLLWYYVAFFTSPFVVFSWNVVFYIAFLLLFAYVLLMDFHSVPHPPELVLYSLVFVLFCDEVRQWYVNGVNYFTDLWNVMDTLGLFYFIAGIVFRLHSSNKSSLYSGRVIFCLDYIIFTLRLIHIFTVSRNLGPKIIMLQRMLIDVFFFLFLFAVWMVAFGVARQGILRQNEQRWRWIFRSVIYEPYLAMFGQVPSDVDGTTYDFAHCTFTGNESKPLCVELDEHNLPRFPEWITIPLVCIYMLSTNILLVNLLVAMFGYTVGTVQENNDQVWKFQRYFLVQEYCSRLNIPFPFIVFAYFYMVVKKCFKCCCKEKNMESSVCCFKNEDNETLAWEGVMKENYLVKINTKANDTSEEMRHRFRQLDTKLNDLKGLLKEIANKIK

Row | Compound | IC50 [nmol/L]
1 | CS(=O)(=O)NCc1ccc(S(=O)(=O)N(Cc2ccc(OC(F)(F)F)cc2)c2ncc3ccccc3c2C2CC2)cc1 [Example 11, N-(4-cyclopropylisoquinolin-3-yl)-4-{[(methylsulfonyl)amino]methyl}-N-[4-(trifluoromethoxy)benzyl]benzenesulfonamide] | 29.5
2 | O=c1[nH][nH]c2cc(S(=O)(=O)N(Cc3ccc(OC(F)(F)F)cc3)c3ncc4ccccc4c3C3CC3)ccc12 [Example 13, N-(4-cyclopropylisoquinolin-3-yl)-3-oxo-N-[4-(trifluoromethoxy)benzyl]-2,3-dihydro-1H-indazole-6-sulfonamide] | 4.3
3 | O=S(=O)(c1ccc(-c2ncn[nH]2)nc1)N(Cc1ccc(OC(F)(F)F)cc1)c1ncc2ccccc2c1C(F)(F)F [Example 28] | 3.5
4 | CC(=O)NCc1ccc(S(=O)(=O)N(Cc2ccc(OC(F)(F)F)cc2)c2ncc3ccccc3c2C2CC2)cc1 [Example 10, N-[4-({(4-cyclopropylisoquinolin-3-yl)[4-(trifluoromethoxy)benzyl]amino}sulfonyl)benzyl]acetamide] | 23.9
5 | CC(C)c1cc(S(=O)(=O)N(Cc2ccc(OC(F)(F)F)cc2)c2ncc3ccccc3c2C(F)(F)F)ccc1C(=O)O [Example 56] | 6.6
6 | O=C(O)c1ccc(S(=O)(=O)N(Cc2ccc(OC(F)(F)F)cc2)c2ncc3ccccc3c2C2CC2)cc1-c1ccccc1 [Example 55] | 13.6
7 | Cc1cc(S(=O)(=O)N(Cc2ccc(OC(F)(F)F)cc2)c2ncc3ccccc3c2C2CC2)ccc1C(=O)O [Example 36, 4-({(4-cyclopropylisoquinolin-3-yl)[4-(trifluoromethoxy)benzyl]amino}sulfonyl)-2-methylbenzoic acid] | 1.4
8 | Cc1n[nH]c(-c2ccc(S(=O)(=O)N(Cc3ccc(OC(F)(F)F)cc3)c3ncc4ccccc4c3C(F)(F)F)cc2)n1 [Example 21] | 1.1
9 | Cc1n[nH]c(-c2ccc(S(=O)(=O)N(Cc3ccc(OC(F)(F)F)cc3)c3ncc4ccccc4c3C3CC3)cc2)n1 [Example 22] | 0.6
10 | Cc1cc(S(=O)(=O)N(Cc2ccc(C(F)(F)F)cn2)c2ncc3ccccc3c2C2CC2)ccc1C(=O)O [Example 37, 4-[((4-cyclopropylisoquinolin-3-yl){[5-(trifluoromethyl)pyridin-2-yl]methyl}amino)sulfonyl]-2-methylbenzoic acid] | 9.5
11 | Cc1cc(S(=O)(=O)N(Cc2ccc(OC(F)(F)F)cc2)c2ncc3ccccc3c2C2CC2)cc(F)c1C(=O)O [Example 42] | 1.5
12 | Cc1cc(S(=O)(=O)N(Cc2ccc(OC(F)(F)F)cc2)c2ncc3ccccc3c2C2CC2)ccc1-c1nnn[nH]1 [Example 17] | 0.3
13 | O=S(=O)(c1ccc(-c2ncn[nH]2)cc1)N(Cc1ccc(OC(F)(F)F)cc1)c1ncc2ccccc2c1C1CC1 [Example 5, N-(4-cyclopropylisoquinolin-3-yl)-4-(2H-1,2,4-triazol-3-yl)-N-[4-(trifluoromethoxy)benzyl]benzenesulfonamide] | 3.4
14 | O=c1[nH]c(-c2ccc(S(=O)(=O)N(Cc3ccc(OC(F)(F)F)cc3)c3ncc4ccccc4c3C3CC3)cc2)no1 [Example 7, N-(4-cyclopropylisoquinolin-3-yl)-4-(5-oxo-4,5-dihydro-1,2,4-oxadiazol-3-yl)-N-[4-(trifluoromethoxy)benzyl]benzenesulfonamide] | 1
15 | O=S(=O)(c1ccc(CNS(=O)(=O)C(F)(F)F)cc1)N(Cc1ccc(OC(F)(F)F)cc1)c1ncc2ccccc2c1C1CC1 [Example 12, N-(4-cyclopropylisoquinolin-3-yl)-N-[4-(trifluoromethoxy)benzyl]-4-({[(trifluoromethyl)sulfonyl]amino}methyl)benzenesulfonamide] | 40.2
16 | O=C(O)c1ccc(S(=O)(=O)N(Cc2ccc(OC(F)(F)F)cc2)c2ncc3ccccc3c2C2CC2)cc1N1CCCC1 [Example 58] | 4.6
17 | Cc1c(N(Cc2ccc(OC(F)(F)F)cc2)S(=O)(=O)c2ccc(-c3noc(=O)[nH]3)cc2)nc(C2CC2)c2ccccc12 [Example 32] | 2.7
18 | COCc1cc(S(=O)(=O)N(Cc2ccc(OC(F)(F)F)cc2)c2ncc3ccccc3c2C2CC2)ccc1C(=O)O [Example 39, 4-({(4-cyclopropylisoquinolin-3-yl)[4-(trifluoromethoxy)benzyl]amino}sulfonyl)-2-(methoxymethyl)benzoic acid] | 1.4
19 | Cc1cc(S(=O)(=O)N(Cc2ccc(OC(F)(F)F)cc2)c2ncc3ccccc3c2C2CC2)cc(C)c1C(=O)O [Example 51] | 10.9
20 | O=C(O)c1ccc(S(=O)(=O)N(Cc2ccc(OC(F)(F)F)cc2)c2ncc3ccccc3c2C2CC2)cc1N1CCCCC1 [Example 59] | 10.3
21 | O=C(O)c1ccc(S(=O)(=O)N(Cc2ccc(OC(F)(F)F)cc2)c2ncc3ccccc3c2C2CC2)cc1C(F)(F)F [Example 49] | 18.1
22 | CC(C)c1cc(S(=O)(=O)N(Cc2ccc(OC(F)(F)F)cc2)c2ncc3ccccc3c2C2CC2)ccc1C(=O)O [Example 44] | 5.6

Row | Compound | IC50 [nmol/L]
23 | CCCc1cc(S(=O)(=O)N(Cc2ccc(OC(F)(F)F)cc2)c2ncc3ccccc3c2C2CC2)ccc1C(=O)O [Example 57] | 2.5
24 | O=S(=O)(c1ccc(-c2ncn[nH]2)cc1)N(Cc1ccc(OC(F)(F)F)cc1)c1ncc2ccccc2c1C(F)(F)F [Example 20] | 3.2
25 | Cc1cc(S(=O)(=O)N(Cc2ccc(OC(F)(F)F)cc2)c2ncc3ccccc3c2C2CC2)ccc1-c1ncn[nH]1 [Example 23] | 0.5
26 | O=c1[nH]c(-c2ccc(S(=O)(=O)N(Cc3ccc(OC(F)(F)F)cc3)c3ncc4ccccc4c3C3CC3)cn2)no1 [Example 9, N-(4-cyclopropylisoquinolin-3-yl)-6-(5-oxo-4,5-dihydro-1,2,4-oxadiazol-3-yl)-N-[4-(trifluoromethoxy)benzyl]pyridine-3-sulfonamide] | 1.1
27 | O=S(=O)(c1ccc(-c2nnn[nH]2)cc1)N(Cc1ccc(OC(F)(F)F)cc1)c1ncc2ccccc2c1C(F)(F)F [Example 15] | 2
28 | CNc1cc(S(=O)(=O)N(Cc2ccc(OC(F)(F)F)cc2)c2ncc3ccccc3c2C2CC2)ccc1C(=O)O [Example 41, 4-({(4-cyclopropylisoquinolin-3-yl)[4-(trifluoromethoxy)benzyl]amino}sulfonyl)-2-(methylamino)benzoic acid] | 1.1
29 | O=c1[nH]c(-c2ccc(S(=O)(=O)N(Cc3ccc(OC(F)(F)F)cc3)c3ncc4ccccc4c3C3CC3)nc2)no1 [Example 35] | 9.6
30 | O=C(O)c1ccc(S(=O)(=O)N(Cc2ccc(OC(F)(F)F)cc2)c2ncc3ccccc3c2C2CC2)cc1N1CCOCC1 [Example 60] | 19.6
31 | O=c1[nH]c(-c2ccc(S(=O)(=O)N(Cc3ccc(OC(F)(F)F)cc3)c3ncc4ccccc4c3C(F)(F)F)cn2)no1 [Example 33] | 3.6
32 | O=S(=O)(c1ccc(-c2nnn[nH]2)cc1)N(Cc1ccc(OC(F)(F)F)cc1)c1ncc2ccccc2c1C1CC1 [Example 1, N-(4-cyclopropylisoquinolin-3-yl)-4-(1H-tetrazol-5-yl)-N-[4-(trifluoromethoxy)benzyl]benzenesulfonamide] | 0.3
33 | O=c1[nH]nnn1-c1ccc(S(=O)(=O)N(Cc2ccc(OC(F)(F)F)cc2)c2ncc3ccccc3c2C2CC2)cc1 [Example 4, N-(4-cyclopropylisoquinolin-3-yl)-4-(5-oxo-4,5-dihydro-1H-tetrazol-1-yl)-N-[4-(trifluoromethoxy)benzyl]benzenesulfonamide] | 1.1
34 | O=S(=O)(c1ccc(-c2nnn[nH]2)cn1)N(Cc1ccc(OC(F)(F)F)cc1)c1ncc2ccccc2c1C1CC1 [Example 3, N-(4-cyclopropylisoquinolin-3-yl)-5-(1H-tetrazol-5-yl)-N-[4-(trifluoromethoxy)benzyl]pyridine-2-sulfonamide] | 7.6
35 | Cc1cc(S(=O)(=O)N(Cc2ccc(OC(F)(F)F)cc2)c2ncc3ccccc3c2C2CC2)ccc1-c1noc(=O)[nH]1 [Example 34] | 0.5
36 | O=C(O)c1ccc(S(=O)(=O)N(Cc2ccc(OC(F)(F)F)cc2)c2ncc3ccccc3c2C2CC2)cc1Cl [Example 47] | 3.8
37 | O=c1[nH]c(-c2ccc(S(=O)(=O)N(Cc3ccc(OC(F)(F)F)cc3)c3ncc4ccccc4c3C(F)(F)F)cc2)no1 [Example 8, 4-(5-oxo-4,5-dihydro-1,2,4-oxadiazol-3-yl)-N-[4-(trifluoromethoxy)benzyl]-N-[4-(trifluoromethyl)isoquinolin-3-yl]benzenesulfonamide] | 2.3
38 | O=S(=O)(c1ccc(-c2nnn[nH]2)nc1)N(Cc1ccc(OC(F)(F)F)cc1)c1ncc2ccccc2c1C(F)(F)F [Example 16] | 1.6
39 | O=S(=O)(c1ccc(-c2ncn[nH]2)cc1)N(Cc1ccc(C(F)(F)F)cn1)c1ncc2ccccc2c1C1CC1 [Example 24] | 1.2
40 | CCc1cc(S(=O)(=O)N(Cc2ccc(OC(F)(F)F)cc2)c2ncc3ccccc3c2C2CC2)ccc1C(=O)O [Example 54] | 2.1
41 | O=S(=O)(c1ccc(-c2nnn[nH]2)nc1)N(Cc1ccc(OC(F)(F)F)cc1)c1ncc2ccccc2c1C1CC1 [Example 2, N-(4-cyclopropylisoquinolin-3-yl)-6-(1H-tetrazol-5-yl)-N-[4-(trifluoromethoxy)benzyl]pyridine-3-sulfonamide] | 0.7
42 | Cc1cc(S(=O)(=O)N(Cc2ccc(OC(F)(F)F)cc2)c2ncc3ccccc3c2C(F)(F)F)ccc1C(=O)O [Example 46] | 3.3
43 | Cc1c(N(Cc2ccc(OC(F)(F)F)cc2)S(=O)(=O)c2ccc(-c3nnn[nH]3)cc2)nc(C2CC2)c2ccccc12 [Example 14] | 0.7
44 | Cc1n[nH]c(-c2ccc(S(=O)(=O)N(Cc3ccc(OC(F)(F)F)cc3)c3ncc4ccccc4c3C(F)(F)F)cn2)n1 [Example 29] | 2.2
